What was measured:
[1] = Absorption and fluorescence properties of the rhodamine derivative before and after acetylation; format: physicochemical; conditions: for fluorescence maximum: excitation at 550 nm; for absorption maximum / molar absorption coefficient ε at absorption maximum: in PBS (medium given for compound 3); for fluorescence quantum yield: in PBS, rhodamine B as control
From the text: The compound 3 (RH—NH2) obtained had the absorption maximum (ε=71400 M^−1cm^−1) at 546 nm in PBS, fluorescence maximum at 570 nm with excitation at 550 nm, and fluorescence quantum yield of 4.9×10^−4 as measured in PBS using rhodamine B as a control. The acetylated compound 4 (RH—NHAc) had the absorption maximum (ε=35500 M^−1cm^−1) at 553 nm, fluorescence maximum at 572 nm with excitation at 550 nm, and fluorescence quantum yield of 0.12.

[2] = tested on: HeLa cells; test: Visualization of intracellular acetylation in HeLa cells by fluorescence enhancement; format: cell-based
Experimental: The acylation catalyst was added at the time point of 2 minutes, and N-methoxydiacetamide (NMD, 10 mM) was added as an acetylating agent at the time point of 7 minutes. Enhancement of the fluorescence intensity (F/F0) was calculated with an excitation wavelength of 550 nm and a fluorescence wavelength of 575 nm as an average of the results obtained from five cells. […] FIGS. 4, (c), (d), and (e) show color images of the HeLa cell after 1 minute, 5 minutes, and 10 minutes, respectively.
In view of the results of the model acetylation shown in Example 3, it is considered that enhancement of the intracellular fluorescence intensity was originated in acetylation advanced by physiological acetyl-CoA in the inside of mitochondria. […] Therefore, advance of the intracellular acetylation was successfully visualized by the compound 3 together with the physiological acetyl-CoA and the additionally added acetylating agent. It is known that the acetyl-CoA concentration in mitochondria is higher than the average intracellular acetyl-CoA concentration (J. Gen., Microbiol., 134, pp. 2249-2253, 1988), and the aforementioned results are consistent with this finding.

[3] = tested on: HeLa cells; test: Staining and mitochondrial localization in HeLa cells (double staining with TagCFP-Mito); format: cell-based
Experimental: In order to visualize an intracellular acetylation, the following experiment was conducted by using the compound 3 as the rhodamine derivative. It is known that a positively charged rhodamine derivative structure such as tetramethylrhodamine migrates into cells and localizes in mitochondria (J. Circ. Res., 95, pp. 239-252, 2004; J. Biol. Chem., 264, pp. 8171-8178, 1989; Plos. One., 6, e23684, 2011; as especially for localization of 5-aminorhodamine derivatives in mitochondria, see, GB2283744 and U.S. Pat. No. 5,686,261). The compound 3 (10 μM) was allowed to act on the HeLa cells at 37° C. for 30 minutes in the Hanks' balanced salt solution (HBSS, 137 mM NaCl, 5.4 mM KCl, 1.3 mM CaCl2, 0.5 mM MgCl2, 0.4 mM MgSO4, 0.3 mM Na2HPO4, 0.4 mM KH2PO4, 4.2 mM NaHCO3, 5.6 mM D-glucose, 5 mM HEPES, adjusted to pH 7.4 with NaOH), the cells were washed twice with HBSS, and then fluorescence was measured.
The localization in the mitochondria of the HeLa cells was visualized by expression of TagCFP-Mito, which is a cyan fluorescent protein, and thereby confirmed. The HeLa cells were transfected with the pTagCFP-Mito vector (Evrogen) using Lipofectamine LTX (Invitrogen), and fluorescence was measured from 24 hours thereafter. The compound 3 was excited at 559 nm, and fluorescence of 580 to 680 nm was measured. TagCFP-Mito was excited at 440 nm, and fluorescence of 460 to 500 nm was measured. […]

[4] = Acetylation of compound 3 by compound 6 (acetyl-CoA analogue) with tributylphosphine in PBS; conditions: compound 3 1 μM, tributylphosphine 10 mM, PBS pH 7.4, 1% DMSO, 25° C., ex 550 nm, em 575 nm
Experimental: The compound 3 (1 μM) was mixed with tributylphosphine (10 mM) as the acylation catalyst or acylation reaction-promoting agent, the compound 6 was added 1 minute afterward, and advance of the acetylation was measured over time at 25° C. in PBS (pH 7.4, 1% DMSO) in the same manner as that of Example 2. Fluorescence of 575 nm was measured with excitation at 550 nm. […] Correlation was observed between the fluorescence intensity and the concentration of the acetylating agent 1 minute after the addition of the acetylating agent (FIG. 2).

[5] = Acetylation of compound 3 by N-methoxydiacetamide in PBS with acylation catalyst, fluorescence change over time; conditions: for increase in fluorescence intensity over time vs. no catalyst: PBS pH 7.4, 1% DMSO, 25° C.
Experimental: The compound 3 (1 μM) and an acylation catalyst or acylation reaction-promoting agent (10 mM) were dissolved in PBS (pH 7.4, containing 1% DMSO), N-methoxydiacetamide (NMD, 0.1M) was added as an acetylating agent 1 minute afterward, and change of fluorescence was measured over time at 25° C.

[6] = compound 3 1 μM, catalyst 10 mM, NMD 0.1M

Compound | fluorescence maximum [1] | absorption maximum [1] | molar absorption coefficient ε at absorption maximum [1] | fluorescence quantum yield [1] | increase in fluorescence intensity over time vs. no catalyst [5, 6] | other results
CN(C)c1ccc2c(-c3ccc(N)cc3)c3ccc(=[N+](C)C)cc-3oc2c1.O=C([O-])C(F)(F)F [compound 3, N-(9-(4-Aminophenyl)-6-(dimethylamino)-3H-xanthen-3-ylidene)-N-methylmethanaminium trifluoroacetate] | 570 nm | 546 nm | 71400 M⁻¹ cm⁻¹ | 4.9×10^−4 |  | enhancement of fluorescence intensity over time, no catalyst ([2]; 37° C., absence of acylation catalyst or reaction-promoting agent): enhancement of fluorescence intensity was not observed; fluorescence intensity after further adding N-methoxydiacetamide ([2]; NMD 10 mM added at 7 minutes, after tributylphosphine 5 mM): the fluorescence intensity was further enhanced; enhancement of intracellular fluorescence intensity with tributylphosphine ([2]; compound 3 10 μM, tributylphosphine 5 mM added to medium, 37° C.): enhancement of intracellular fluorescence intensity was observed; intracellular localization (staining image) ([3]; 10 μM, 37° C., 30 minutes, HBSS): localization of the compound in the mitochondria; consistency of fluorescence image with TagCFP-Mito image ([3]; ex 559 nm, em 580 to 680 nm, HeLa cells transfected with pTagCFP-Mito): well consistent with the fluorescence image of the cyan fluorescence protein expressed in the mitochondria; increase of fluorescence on acetylation with compound 6 [4]: Rapid increase of fluorescence was obtained
CCCCP(CCCC)CCCC [tributylphosphine] |  |  |  |  | larger increase in fluorescence intensity was observed over time | fluorescence intensity relative to that without addition of catalyst ([5]; 5 minutes after addition, compound 3 1 μM, catalyst 10 mM, NMD 0.1M, PBS pH 7.4, 25° C.): about 5 times; increase in reaction rate relative to reaction without catalyst ([5]; compared with rate at start of reaction without catalyst): about 5.5 times
CN(C)c1ccncc1 [dimethylaminopyridine] |  |  |  |  | larger increase in fluorescence intensity was observed over time | 
CC(=O)Nc1ccc(-c2c3ccc(=[N+](C)C)cc-3oc3cc(N(C)C)ccc23)cc1.CC(=O)[O-] [compound 4, N-(9-(4-Acetamidophenyl)-6-(dimethylamino)-3H-xanthen-3-ylidene)-N-methylmethanaminium acetate] | 572 nm | 553 nm | 35500 M⁻¹ cm⁻¹ | 0.12 |  | 
